Laboratory results from ChEMBL document CHEMBL3991601, “The target landscape of clinical kinase drugs” (Science, 2017).
Calls of active or inactive are those of the source. Rule as the data show it, for most assays here: actives have a measured Kd and inactives only a lower limit.

Key:
[1] = target: T1, Mitogen-activated protein kinase kinase kinase 5 (Homo sapiens, UniProt Q99683)
T1 sequence (Q99683 whole entry): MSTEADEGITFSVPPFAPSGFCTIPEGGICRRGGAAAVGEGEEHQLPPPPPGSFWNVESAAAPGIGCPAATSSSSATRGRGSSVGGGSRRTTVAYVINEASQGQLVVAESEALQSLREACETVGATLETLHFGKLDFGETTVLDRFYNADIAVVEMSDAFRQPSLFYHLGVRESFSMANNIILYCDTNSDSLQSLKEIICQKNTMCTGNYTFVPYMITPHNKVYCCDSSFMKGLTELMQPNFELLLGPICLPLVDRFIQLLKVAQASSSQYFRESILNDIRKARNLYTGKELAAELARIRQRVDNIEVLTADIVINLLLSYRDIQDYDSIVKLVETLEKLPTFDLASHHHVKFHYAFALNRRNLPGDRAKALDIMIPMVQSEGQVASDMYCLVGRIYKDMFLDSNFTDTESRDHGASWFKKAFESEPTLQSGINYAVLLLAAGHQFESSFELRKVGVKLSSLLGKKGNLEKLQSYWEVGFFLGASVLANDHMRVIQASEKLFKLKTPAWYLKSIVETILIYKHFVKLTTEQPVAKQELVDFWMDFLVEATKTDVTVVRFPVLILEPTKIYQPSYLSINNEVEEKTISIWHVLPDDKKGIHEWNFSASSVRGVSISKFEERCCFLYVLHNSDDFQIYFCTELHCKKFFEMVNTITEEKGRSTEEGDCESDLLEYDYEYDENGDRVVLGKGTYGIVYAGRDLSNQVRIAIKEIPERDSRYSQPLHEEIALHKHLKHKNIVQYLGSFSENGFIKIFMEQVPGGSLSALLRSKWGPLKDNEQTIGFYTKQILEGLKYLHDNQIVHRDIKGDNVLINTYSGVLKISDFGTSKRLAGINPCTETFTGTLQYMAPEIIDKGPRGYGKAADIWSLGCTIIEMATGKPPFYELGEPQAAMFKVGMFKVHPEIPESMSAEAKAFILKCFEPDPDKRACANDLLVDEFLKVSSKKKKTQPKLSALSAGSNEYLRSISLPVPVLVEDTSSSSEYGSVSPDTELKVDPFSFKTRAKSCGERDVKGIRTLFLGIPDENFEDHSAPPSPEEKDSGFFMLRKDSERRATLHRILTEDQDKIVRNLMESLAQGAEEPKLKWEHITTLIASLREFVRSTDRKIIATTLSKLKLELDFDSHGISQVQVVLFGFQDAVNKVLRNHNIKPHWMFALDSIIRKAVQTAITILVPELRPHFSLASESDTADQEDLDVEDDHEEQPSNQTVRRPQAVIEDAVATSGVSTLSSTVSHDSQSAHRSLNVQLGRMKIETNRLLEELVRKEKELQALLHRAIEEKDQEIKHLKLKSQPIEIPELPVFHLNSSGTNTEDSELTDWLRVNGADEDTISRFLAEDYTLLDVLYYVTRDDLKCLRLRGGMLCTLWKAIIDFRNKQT

[2] = target: Mitogen-activated protein kinase kinase kinase kinase 1 (Homo sapiens, UniProt Q92918)
[3] = target: T2, Breakpoint cluster region protein (Homo sapiens, UniProt P11274)
T2 sequence (P11274 whole entry): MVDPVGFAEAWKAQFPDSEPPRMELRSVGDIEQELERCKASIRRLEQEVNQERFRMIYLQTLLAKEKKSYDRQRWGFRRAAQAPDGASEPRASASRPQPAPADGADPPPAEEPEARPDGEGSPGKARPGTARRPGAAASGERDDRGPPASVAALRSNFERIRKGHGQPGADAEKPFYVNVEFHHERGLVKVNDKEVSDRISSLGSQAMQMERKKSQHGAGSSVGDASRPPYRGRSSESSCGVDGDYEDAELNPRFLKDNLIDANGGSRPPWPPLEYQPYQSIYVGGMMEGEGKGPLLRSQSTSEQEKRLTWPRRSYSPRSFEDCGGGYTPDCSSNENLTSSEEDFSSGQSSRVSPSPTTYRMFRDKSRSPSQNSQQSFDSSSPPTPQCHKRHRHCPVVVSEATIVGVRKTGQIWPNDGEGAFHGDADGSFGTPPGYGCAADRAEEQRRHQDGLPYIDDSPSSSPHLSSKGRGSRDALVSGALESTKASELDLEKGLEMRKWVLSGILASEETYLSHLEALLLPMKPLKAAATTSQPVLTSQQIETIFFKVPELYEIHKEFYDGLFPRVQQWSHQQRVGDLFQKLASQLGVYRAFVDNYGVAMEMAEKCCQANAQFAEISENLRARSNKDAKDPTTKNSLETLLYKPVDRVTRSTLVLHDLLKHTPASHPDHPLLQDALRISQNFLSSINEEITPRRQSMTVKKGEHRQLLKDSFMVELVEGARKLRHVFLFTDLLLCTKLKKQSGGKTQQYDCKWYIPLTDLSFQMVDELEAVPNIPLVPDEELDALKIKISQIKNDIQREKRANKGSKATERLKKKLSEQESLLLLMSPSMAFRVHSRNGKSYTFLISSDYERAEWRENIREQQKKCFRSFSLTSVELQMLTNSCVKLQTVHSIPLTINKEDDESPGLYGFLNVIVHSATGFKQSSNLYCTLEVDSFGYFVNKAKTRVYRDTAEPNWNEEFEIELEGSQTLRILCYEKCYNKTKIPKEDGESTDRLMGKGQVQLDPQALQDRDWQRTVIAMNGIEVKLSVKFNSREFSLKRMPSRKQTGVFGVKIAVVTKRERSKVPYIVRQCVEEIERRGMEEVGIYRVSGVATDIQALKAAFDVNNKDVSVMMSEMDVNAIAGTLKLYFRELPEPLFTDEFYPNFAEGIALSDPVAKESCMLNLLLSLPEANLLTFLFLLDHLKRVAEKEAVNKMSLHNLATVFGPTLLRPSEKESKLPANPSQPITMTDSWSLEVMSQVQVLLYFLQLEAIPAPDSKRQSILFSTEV

[4] = target: Aurora kinase B (Homo sapiens, UniProt Q96GD4)
[5] = target: cAMP-dependent protein kinase catalytic subunit gamma (Homo sapiens, UniProt P22612)
Also: in the data inactive means no Kd found up to 30 µM.

Chain of Aurora kinase B (Q96GD4 whole entry): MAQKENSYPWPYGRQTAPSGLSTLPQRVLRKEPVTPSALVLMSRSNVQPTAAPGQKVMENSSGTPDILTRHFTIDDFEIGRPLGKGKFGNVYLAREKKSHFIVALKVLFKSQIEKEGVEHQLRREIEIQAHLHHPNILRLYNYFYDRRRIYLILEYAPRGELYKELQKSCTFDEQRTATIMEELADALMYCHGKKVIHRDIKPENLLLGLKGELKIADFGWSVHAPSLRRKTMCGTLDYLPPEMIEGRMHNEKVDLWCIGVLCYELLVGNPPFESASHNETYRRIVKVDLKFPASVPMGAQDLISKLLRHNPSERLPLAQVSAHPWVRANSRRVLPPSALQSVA
Chain of Mitogen-activated protein kinase kinase kinase kinase 1 (Q92918 whole entry): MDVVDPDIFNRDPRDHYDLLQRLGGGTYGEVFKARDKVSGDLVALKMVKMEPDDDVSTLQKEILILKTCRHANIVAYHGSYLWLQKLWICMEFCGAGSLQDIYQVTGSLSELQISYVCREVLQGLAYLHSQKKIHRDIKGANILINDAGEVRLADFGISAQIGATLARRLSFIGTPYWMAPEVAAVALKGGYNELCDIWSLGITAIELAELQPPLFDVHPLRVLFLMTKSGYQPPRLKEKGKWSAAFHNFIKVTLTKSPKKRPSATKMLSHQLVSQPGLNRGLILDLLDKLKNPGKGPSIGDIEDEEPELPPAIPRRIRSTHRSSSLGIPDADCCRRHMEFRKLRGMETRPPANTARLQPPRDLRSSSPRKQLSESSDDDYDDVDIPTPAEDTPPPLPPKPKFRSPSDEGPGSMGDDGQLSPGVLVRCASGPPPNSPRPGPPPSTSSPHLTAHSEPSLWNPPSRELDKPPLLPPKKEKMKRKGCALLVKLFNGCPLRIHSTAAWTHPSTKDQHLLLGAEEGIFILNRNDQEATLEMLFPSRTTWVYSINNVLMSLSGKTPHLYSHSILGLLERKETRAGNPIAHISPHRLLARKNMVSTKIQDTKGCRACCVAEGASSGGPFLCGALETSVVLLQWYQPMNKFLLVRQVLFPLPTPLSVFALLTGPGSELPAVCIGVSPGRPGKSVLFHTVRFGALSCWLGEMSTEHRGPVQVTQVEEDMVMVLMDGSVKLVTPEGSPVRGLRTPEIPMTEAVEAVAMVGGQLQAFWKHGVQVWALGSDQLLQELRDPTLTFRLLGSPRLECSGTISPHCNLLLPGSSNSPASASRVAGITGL
Chain of cAMP-dependent protein kinase catalytic subunit gamma (P22612 whole entry): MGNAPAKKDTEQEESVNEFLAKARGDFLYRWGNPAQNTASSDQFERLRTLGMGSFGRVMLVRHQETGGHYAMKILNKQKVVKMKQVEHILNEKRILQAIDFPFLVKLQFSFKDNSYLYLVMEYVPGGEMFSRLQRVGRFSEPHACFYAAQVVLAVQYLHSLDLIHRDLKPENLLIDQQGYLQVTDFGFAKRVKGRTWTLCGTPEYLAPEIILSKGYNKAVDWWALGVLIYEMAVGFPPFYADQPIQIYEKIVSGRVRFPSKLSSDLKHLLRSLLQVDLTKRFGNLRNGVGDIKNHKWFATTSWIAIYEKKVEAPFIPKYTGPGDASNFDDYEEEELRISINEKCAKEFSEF

SMILES	Kd [1]	Kd [2]	Kd [3]	Kd [4]	Kd [5]
COc1cc(CCc2cc(NC(=O)c3ccc(N4C[C@@H](C)N[C@@H](C)C4)cc3)n[nH]2)cc(OC)c1 [AZD-4547]	> 30 µM (inactive)	0.354 µM (active)	> 30 µM (inactive)	1.67 µM	
CNC(=O)c1ccc(C)c(-n2c(C)cc(OCc3ccc(F)cc3F)c(Br)c2=O)c1 [PH-797804]	> 30 µM (inactive)	> 30 µM (inactive)	> 30 µM (inactive)	> 30 µM (inactive)	
COCCNCc1ccc(-c2cc3nccc(Oc4ccc(NC(=S)NC(=O)Cc5ccc(F)cc5)cc4F)c3s2)nc1 [GLESATINIB]	> 30 µM (inactive)	> 30 µM (inactive)	0.858 µM (active)	> 30 µM (inactive)	
CCn1c(-c2nonc2N)nc2c(C#CC(C)(C)O)ncc(OC[C@H]3CCCNC3)c21 [GSK-690693]			> 30 µM (inactive)		> 30 µM (inactive)
O=C(Nc1cccc(Cl)c1)Nc1ncc(CCNc2ncnc3ccsc23)s1 [SNS-314]	> 30 µM (inactive)	> 30 µM (inactive)	> 30 µM (inactive)		
COc1cc2nccc(Oc3ccc(NC(=O)Nc4cc(C)on4)c(Cl)c3)c2cc1OC [TIVOZANIB]	> 30 µM (inactive)	> 30 µM (inactive)	0.16 µM (active)		> 30 µM (inactive)
C[C@@H](c1ccc2nccn2c1)n1nnc2ncc(-c3cnn(C)c3)nc21 [SAVOLITINIB]	> 30 µM (inactive)		> 30 µM (inactive)	> 30 µM (inactive)	> 30 µM (inactive)
Cc1cn(-c2cc(NC(=O)c3ccc(C)c(Nc4nccc(-c5cccnc5)n4)c3)cc(C(F)(F)F)c2)cn1 [NILOTINIB]					> 30 µM (inactive)
CC[C@@H]1C(=O)N(C)c2cnc(Nc3ccc(C(=O)N[C@H]4CC[C@H](N5CCN(CC6CC6)CC5)CC4)cc3OC)nc2N1C(C)C [VOLASERTIB]	> 30 µM (inactive)	> 30 µM (inactive)	> 30 µM (inactive)	> 30 µM (inactive)	
Nc1nc(N)c2nc(-c3cccc(O)c3)c(-c3cccc(O)c3)nc2n1 [TG100-115]			> 30 µM (inactive)		> 30 µM (inactive)
Cc1nc(N)sc1-c1ccnc(Nc2ccc(N3CCOCC3)cc2)n1 [CYC-116]		> 30 µM (inactive)	8.09 µM (active)		
CNS(=O)(=O)Nc1nccc(Cc2c(C)c3ccc(Oc4ncccn4)cc3oc2=O)c1F [AVUTOMETINIB]	> 30 µM (inactive)		> 30 µM (inactive)	> 30 µM (inactive)	
CCCS(=O)(=O)Nc1ccc(F)c(C(=O)c2c[nH]c3ncc(-c4ccc(Cl)cc4)cc23)c1F [VEMURAFENIB]	> 30 µM (inactive)	> 30 µM (inactive)	> 30 µM (inactive)	> 30 µM (inactive)	
C=CC(=O)N1CCC(Oc2cc3c(Nc4ccc(Cl)c(Cl)c4F)ncnc3cc2OC)CC1 [POZIOTINIB]	> 30 µM (inactive)	> 30 µM (inactive)	> 30 µM (inactive)		> 30 µM (inactive)
